According to patent publication US11439618B2, “Compositions and methods for lowering triglycerides” (Amarin Pharmaceuticals Ireland Limited, priority 2009, dated 2022):

Assay: Essential fatty acid (EFA) parameters in plasma and RBC, gas chromatography of fatty acid methyl esters
Assay type: in vivo, human
Protocol: Blood samples (10 mL) were collected at Visit 1 (screening) and at Visits 4, 5 and 6. Analysis was performed by MSR Lipid Analysis, Scottish Crop Research Institute, Dundee, UK. The screening sample acted as baseline for the EFA measurements. Lipid was extracted from plasma, serum and RBC suspensions and converted into fatty acid methyl esters which were analyzed by gas chromatography to give fatty acid profiles as micrograms fatty acid per gram of sample (μgFA/g) and normalized area percent.
RBC and plasma EFA data were collected at baseline, Day 14, 28 and 42 and summarized by visit for each treatment group. Change from baseline and percent change from baseline were also summarized. ANCOVA comparison of ethyl-EPA dose groups and ethyl-EPA versus placebo was performed.
Notable changes for these parameters occurred in the ethyl-EPA treatment groups at Days 14, 28 and 42 compared to placebo.

[1] = plasma, 1 g daily group, Baseline
[2] = plasma, 2 g daily group, Baseline
[3] = plasma, 4 g daily group, Baseline

**Q.** Which “EPA, DPAn-3 and EPA/AA ratio values, change from baseline” value (plasma and RBC, to Day 42, 1, 2 and 4 g) does the source give for `CC/C=C\C/C=C\C/C=C\C/C=C\C/C=C\CCCC(=O)OCC` [Ethyl-EPA, all-cis eicosa-5,8,11,14,17-pentaenoic acid ethyl ester] here?
**A.** increased substantially from baseline

**Q.** What about the “AA, DHA and DGLA values, change from baseline” value (plasma and RBC, to day 42, 1, 2 and 4 g) of the same molecule?
**A.** decreased substantially from baseline

**Q.** What about the “AA Mean at Baseline” value [1] of the same molecule?
**A.** 202.5 µg/g

**Q.** And the “DGLA Mean at Baseline” value [1]?
**A.** 51.2 µg/g

**Q.** What about the “DHA Mean at Baseline” value [1] of the same molecule?
**A.** 73.1 µg/g

**Q.** And the “DPAn-3 Mean at Baseline” value [1]?
**A.** 21.1 µg/g

**Q.** What about the “EPA Mean at Baseline” value [1] of the same molecule?
**A.** 48.3 µg/g

**Q.** And the “EPA/AA Mean (SD) at Baseline” value [1]?
**A.** 0.2 (0.14)

**Q.** What about the “AA Mean change from Baseline” value (plasma, 1 g daily, Day 14) of the same molecule?
**A.** -9.7 µg/g

**Q.** What about the “DGLA Mean change from Baseline” value (plasma, 1 g daily, Day 14) of the same molecule?
**A.** -10.4 µg/g

**Q.** What about the “DHA Mean change from Baseline” value (plasma, 1 g daily, Day 14) of the same molecule?
**A.** -6.4 µg/g

**Q.** What about the “DPAn-3 Mean change from Baseline” value (plasma, 1 g daily, Day 14) of the same molecule?
**A.** 7.5 µg/g

**Q.** What about the “EPA Mean change from Baseline” value (plasma, 1 g daily, Day 14) of the same molecule?
**A.** 61.2 µg/g

**Q.** And the “EPA/AA Mean (SD) change from Baseline” value (plasma, 1 g daily, Day 14)?
**A.** 0.3 (0.4)

**Q.** And the “AA Mean change from Baseline” value (plasma, 1 g daily, Day 28)?
**A.** -11.3 µg/g

**Q.** What about the “DGLA Mean change from Baseline” value (plasma, 1 g daily, Day 28) of the same molecule?
**A.** -10.6 µg/g

**Q.** What about the “DHA Mean change from Baseline” value (plasma, 1 g daily, Day 28) of the same molecule?
**A.** -6.6 µg/g

**Q.** What about the “DPAn-3 Mean change from Baseline” value (plasma, 1 g daily, Day 28) of the same molecule?
**A.** 8.9 µg/g

**Q.** What about the “EPA Mean change from Baseline” value (plasma, 1 g daily, Day 28) of the same molecule?
**A.** 60.3 µg/g

**Q.** And the “EPA/AA Mean (SD) change from Baseline” value (plasma, 1 g daily, Day 28)?
**A.** 0.3 (0.20)

**Q.** What about the “AA Mean change from Baseline” value (plasma, 1 g daily, Day 42) of the same molecule?
**A.** -8.7 µg/g

**Q.** What about the “DGLA Mean change from Baseline” value (plasma, 1 g daily, Day 42) of the same molecule?
**A.** -9.4 µg/g

**Q.** What about the “DHA Mean change from Baseline” value (plasma, 1 g daily, Day 42) of the same molecule?
**A.** -5.4 µg/g

**Q.** What about the “DPAn-3 Mean change from Baseline” value (plasma, 1 g daily, Day 42) of the same molecule?
**A.** 11.3 µg/g

**Q.** What about the “EPA Mean change from Baseline” value (plasma, 1 g daily, Day 42) of the same molecule?
**A.** 62.0 µg/g

**Q.** What about the “EPA/AA Mean (SD) change from Baseline” value (plasma, 1 g daily, Day 42) of the same molecule?
**A.** 0.3 (0.24)

**Q.** What about the “AA LS Mean, 1 or 2 g versus 4 g” value (plasma, 1 g versus 4 g) of the same molecule?
**A.** 4.2 µg/g

**Q.** What about the “DGLA LS Mean, 1 or 2 g versus 4 g” value (plasma, 1 g versus 4 g) of the same molecule?
**A.** 3.7 µg/g

**Q.** What about the “DHA LS Mean, 1 or 2 g versus 4 g” value (plasma, 1 g versus 4 g) of the same molecule?
**A.** -0.8 µg/g

**Q.** What about the “DPAn-3 LS Mean, 1 or 2 g versus 4 g” value (plasma, 1 g versus 4 g) of the same molecule?
**A.** -15.1 µg/g

**Q.** And the “EPA LS Mean, 1 or 2 g versus 4 g” value (plasma, 1 g versus 4 g)?
**A.** -111.8 µg/g

**Q.** What about the “EPA/AA LS Mean, 1 or 2 g versus 4 g” value (plasma, 1 g versus 4 g) of the same molecule?
**A.** −0.66

**Q.** What about the “AA Mean at Baseline” value [2] of the same molecule?
**A.** 227.3 µg/g

**Q.** What about the “DGLA Mean at Baseline” value [2] of the same molecule?
**A.** 53.5 µg/g

**Q.** What about the “DHA Mean at Baseline” value [2] of the same molecule?
**A.** 75.1 µg/g

**Q.** What about the “DPAn-3 Mean at Baseline” value [2] of the same molecule?
**A.** 19.7 µg/g

**Q.** What about the “EPA Mean at Baseline” value [2] of the same molecule?
**A.** 4.49 µg/g

**Q.** What about the “EPA/AA Mean at Baseline” value [2] of the same molecule?
**A.** 0.2

**Q.** What about the “AA Mean change from Baseline” value (plasma, 2 g daily, Day 14) of the same molecule?
**A.** -13.9 µg/g

**Q.** And the “DGLA Mean change from Baseline” value (plasma, 2 g daily, Day 14)?
**A.** -14.1 µg/g

**Q.** And the “DHA Mean change from Baseline” value (plasma, 2 g daily, Day 14)?
**A.** -5.4 µg/g

**Q.** And the “DPAn-3 Mean change from Baseline” value (plasma, 2 g daily, Day 14)?
**A.** 17.4 µg/g

**Q.** And the “EPA Mean change from Baseline” value (plasma, 2 g daily, Day 14)?
**A.** 124.6 µg/g

**Q.** What about the “EPA/AA Mean change from Baseline” value (plasma, 2 g daily, Day 14) of the same molecule?
**A.** 0.6

**Q.** And the “AA Mean change from Baseline” value (plasma, 2 g daily, Day 28)?
**A.** 21.6 µg/g

**Q.** And the “DGLA Mean change from Baseline” value (plasma, 2 g daily, Day 28)?
**A.** -16.2 µg/g

**Q.** What about the “DHA Mean change from Baseline” value (plasma, 2 g daily, Day 28) of the same molecule?
**A.** -8.1 µg/g

**Q.** What about the “DPAn-3 Mean change from Baseline” value (plasma, 2 g daily, Day 28) of the same molecule?
**A.** 19.4 µg/g

**Q.** What about the “EPA Mean change from Baseline” value (plasma, 2 g daily, Day 28) of the same molecule?
**A.** 142.2 µg/g

**Q.** And the “EPA/AA Mean change from Baseline” value (plasma, 2 g daily, Day 28)?
**A.** 0.8

**Q.** What about the “AA Mean change from Baseline” value (plasma, 2 g daily, Day 42) of the same molecule?
**A.** -27.3 µg/g

**Q.** And the “DGLA Mean change from Baseline” value (plasma, 2 g daily, Day 42)?
**A.** -17.3 µg/g

**Q.** And the “DHA Mean change from Baseline” value (plasma, 2 g daily, Day 42)?
**A.** -6.0 µg/g

**Q.** And the “DPAn-3 Mean change from Baseline” value (plasma, 2 g daily, Day 42)?
**A.** 19.3 µg/g

**Q.** And the “EPA Mean change from Baseline” value (plasma, 2 g daily, Day 42)?
**A.** 133.4 µg/g

**Q.** What about the “EPA/AA Mean change from Baseline” value (plasma, 2 g daily, Day 42) of the same molecule?
**A.** 0.7

**Q.** What about the “AA LS Mean, 1 or 2 g versus 4 g” value (plasma, 2 g versus 4 g) of the same molecule?
**A.** 15.6 µg/g

**Q.** And the “DGLA LS Mean, 1 or 2 g versus 4 g” value (plasma, 2 g versus 4 g)?
**A.** 2.5 µg/g

**Q.** And the “DHA LS Mean, 1 or 2 g versus 4 g” value (plasma, 2 g versus 4 g)?
**A.** 1.5 µg/g

**Q.** And the “DPAn-3 LS Mean, 1 or 2 g versus 4 g” value (plasma, 2 g versus 4 g)?
**A.** -9.5 µg/g

**Q.** What about the “EPA LS Mean, 1 or 2 g versus 4 g” value (plasma, 2 g versus 4 g) of the same molecule?
**A.** -60.9 µg/g

**Q.** What about the “EPA/AA LS Mean, 1 or 2 g versus 4 g” value (plasma, 2 g versus 4 g) of the same molecule?
**A.** −0.41

**Q.** What about the “AA Mean (SD) at Baseline” value [3] of the same molecule?
**A.** 220.9 (42.80) μg/g

**Q.** What about the “DGLA Mean at Baseline” value [3] of the same molecule?
**A.** 57.1 µg/g

**Q.** And the “DHA Mean at Baseline” value [3]?
**A.** 78.8 µg/g

**Q.** What about the “DPAn-3 Mean at Baseline” value [3] of the same molecule?
**A.** 21.7 µg/g

**Q.** And the “EPA Mean at Baseline” value [3]?
**A.** 49.1 µg/g

**Q.** And the “EPA/AA Mean (SD) at Baseline” value [3]?
**A.** 0.2 (0.07)

**Q.** And the “AA Mean (SD) change from Baseline” value (plasma, 4 g daily, Day 14)?
**A.** −27.2 (28.89) μg/g

**Q.** What about the “DGLA Mean change from Baseline” value (plasma, 4 g daily, Day 14) of the same molecule?
**A.** -22.9 µg/g

**Q.** And the “DHA Mean change from Baseline” value (plasma, 4 g daily, Day 14)?
**A.** -10.3 µg/g

**Q.** And the “DPAn-3 Mean change from Baseline” value (plasma, 4 g daily, Day 14)?
**A.** 24.5 µg/g

**Q.** What about the “EPA Mean change from Baseline” value (plasma, 4 g daily, Day 14) of the same molecule?
**A.** 207.7 µg/g

**Q.** And the “EPA/AA Mean (SD) change from Baseline” value (plasma, 4 g daily, Day 14)?
**A.** 1.1 (0.28)

**Q.** What about the “AA Mean (SD) change from Baseline” value (plasma, 4 g daily, Day 28) of the same molecule?
**A.** −43.7 (32.24) μg/g

**Q.** And the “DGLA Mean change from Baseline” value (plasma, 4 g daily, Day 28)?
**A.** -24.2 µg/g

**Q.** What about the “DHA Mean change from Baseline” value (plasma, 4 g daily, Day 28) of the same molecule?
**A.** -13.5 µg/g

**Q.** What about the “DPAn-3 Mean change from Baseline” value (plasma, 4 g daily, Day 28) of the same molecule?
**A.** 29.7 µg/g

**Q.** And the “EPA Mean change from Baseline” value (plasma, 4 g daily, Day 28)?
**A.** 215.2 µg/g

**Q.** What about the “EPA/AA Mean (SD) change from Baseline” value (plasma, 4 g daily, Day 28) of the same molecule?
**A.** 1.3 (0.42)

**Q.** And the “AA Mean (SD) change from Baseline” value (plasma, 4 g daily, Day 42)?
**A.** −48.3 (22.20) μg/g

**Q.** What about the “DGLA Mean change from Baseline” value (plasma, 4 g daily, Day 42) of the same molecule?
**A.** -22.5 µg/g

**Q.** What about the “DHA Mean change from Baseline” value (plasma, 4 g daily, Day 42) of the same molecule?
**A.** -13.8 µg/g

**Q.** What about the “DPAn-3 Mean change from Baseline” value (plasma, 4 g daily, Day 42) of the same molecule?
**A.** 32.0 µg/g

**Q.** And the “EPA Mean change from Baseline” value (plasma, 4 g daily, Day 42)?
**A.** 204.6 µg/g

**Q.** What about the “EPA/AA Mean (SD) change from Baseline” value (plasma, 4 g daily, Day 42) of the same molecule?
**A.** 1.3 (0.45)
